{
  "source": "paper PMC8748493",
  "about": "“Helical structure motifs made searchable for functional peptide design” (Nature Communications, 2022)",
  "key": {"[1]": {"test_system": "Candida albicans SC5314", "settings": "SC5314, 24 h", "experimental": "(§1) Contrasting to the simulation results of W3_p1 and W3_p2, W3_db5 has only one Trp (W3) inserted into the bacterial membrane by the end of 1 μs simulation (Supplementary Movie 1 and Supplementary Fig. 3). […] Experiments are performed in pentaplicate and MIC90 is determined as the majority results of the 5 replicates (see “Methods”). It is worth mentioning that we could reproduce the reported MIC90 values for three published AMPs when using the same culture protocol to culture E. coli ATCC 25922. […] The latter result is consistent with the MD-based natural insertion results (Supplementary Fig. 3).\n(§2) To measure the antimicrobial activity of peptides, MICs were determined by the broth-dilution assay as described in Clinical and Laboratory Standards Institute (CLSI) documents M27-A3 for yeasts[63] and M07-A9 for bacteria[64] with minor modifications. Briefly, E. coli ATCC 25922 and C. albicans SC5314 were recovered from frozen stock by growing overnight at 37 °C on LB (Luria-Bertani) and YPD (Yeast Extract-Peptone-Dextrose) agar plates, separately. A single colony of E. coli was inoculated into 5 ml LB medium and grown overnight at 37 °C with shaking at 220 rpm. Cells were then diluted into MHB (Mueller–Hinton broth) at 1:100, and grew until the optical density at 600 nm (OD600) reached 0.4 to 0.8. For C. albicans SC5314, a single colony was inoculated in YPD broth and grown overnight at 30 °C with shaking at 180 rpm. Cells from the overnight culture were subcultured into fresh YPD and grew to mid-log phase. Finally, E. coli and C. albicans cells obtained from the above-described were diluted into MHB and LYM, a modified RPMI 1640 medium[65] to a concentration of ~5 × 10^5 cells/ml and ~4 × 10^4 cells/ml, respectively. To determine the MIC values, one hundred microliters of cells was placed in each well of a clear bottom 96-well microplate, followed by independently adding 100 μl peptides with different concentrations (in MHB or LYM). The final concentrations in the wells were 120, 60, 30, 15, 7.5, 3.75, and 1.88 μg/ml for peptides, ~2.5 × 10^5 cells/ml for E. coli and ~2 × 10^4 cells/ml for C. albicans. The plate was incubated at 37 °C with shaking at 220 rpm for 18 h (E. coli) and at 180 rpm for 24 h (C. albicans). The OD600 values were measured using a iMark^TM Microplate Absorbance Reader (Bio-Rad). The MIC90 value was determined by 90% reduction in growth compared with that of the peptide-free growth control. Experiments were performed in pentaplicate, and MIC90 was determined as the majority value out of 5 repeats."}, "[2]": {"test_system": "Escherichia coli ATCC 25922", "settings": "ATCC 25922, 18 h; for E. coli ATCC 25922 killed in the MIC90 experiments: 30", "experimental": "as §1, §2"}, "[3]": {"test_system": "human RBCs", "assay_type": "cell-based", "experimental": "The hemolytic toxicity was determined by the hemolysis against human RBCs as in previous publication. First, RBCs from healthy donors were mixed with EDTA in the collecting tubes to inhibit the coagulation. Then the RBCs were washed for three repeats as follows—centrifugation at RCF 800 × g for 10 min, removal of the supernatant, and resuspension with PBS buffer. Such washed RBCs stock was finally diluted with a PBS buffer to be the 10% (v/v) RBCs solution for assays. Then total eight samples of various final concentrations (240, 120, 60, 30, 15, 7.5, 3.75, and 1.88 μg/ml) for each AMP in 96-well microplate were prepared by mixing 10% RBCs and diluted AMP solutions, respectively, at ratio 1:1 (v/v) into final volume 200 μl. All samples were placed under the condition of 37 °C for 1 h and then centrifuged at RCF 800 g for 10 min. Finally, all these supernatants from samples and controls were picked out for the measurement of optical density at the 450 nm wavelength. The data processing was performed to calculate the hemolytic percentage defined as [Asample − Acontrol−]/[Acontrol+ − Acontrol−], where Acontrol+ and Acontrol− are the measurement at wavelength 450 nm for the positive and negative controls, that are 100 μl 10% RBCs suspended in 100 μl PBS buffer with and without 2% (v/v) Triton X-100 (a known detergent to lyse the RBCs), respectively. The final hemolytic percentage for AMPs at various concentrations was determined by the mean values of three repeated experiments, and MHC5 value, defined as the minimal concentration of AMPs leading to at least 5% hemolysis of RBCs, can be determined."}, "[4]": {"test_system": "Escherichia coli ATCC 25922", "settings": "E. coli ATCC 25922; cited from earlier work", "experimental": "Contrasting to the simulation results of W3_p1 and W3_p2, W3_db5 has only one Trp (W3) inserted into the bacterial membrane by the end of 1 μs simulation (Supplementary Movie 1 and Supplementary Fig. 3). To further examine the bactericidal and anti-fungal activities of these AMPs, we measure the minimal inhibitory concentration (MIC90) at which the growth of 90% of the pathogenic fungus Candida albicans SC5314 and Escherichia coli ATCC 25922 can be inhibited. Experiments are performed in pentaplicate and MIC90 is determined as the majority results of the 5 replicates (see “Methods”). It is wor ..."}, "[5]": {"experiment": "Circular dichroism, helicity percentage by DichroWeb", "assay_type": "physicochemical", "settings": "CD spectra 190 to 260 nm", "from_the_text": "We found W3_db5 adopts a higher helicity than W3_n2 that is found to be more helical than W3_n1 (Fig. 5), where W3_n1 has a helicity closest to Tat, a popular cell-penetrating peptide known to take a random coil structure. This low helicity is consistent with the fact that the “WGN WGG W” stretch in W3_n1 takes mostly coil and sheet structures in its original PDB file (PDB ID: 4F54). The online software DichroWeb[44] provides a helicity percentage prediction for Tat, W3_n1, W3_n2, W3_db5, W3_p1, W3_p2, and CM15 based on their spectra data over the wavelength 190 to 260 nm wavelength −6.5, 2.0, 18.3, 60.2, 57.8, 51.2, and 54%, respectively.\nFig. 5 The CD spectra from 190 to 260 nm for all the examined peptides in the study where CM15[1],[50] is a known helical AMP and Tat, a cell-penetrating peptide (YGRKKRRQRRR) extracted from the transactivating transcriptional activator, is in a random coil structure. All the experimental data are provided as a Source data file."}, "[6]": {"settings": "cited from earlier work", "from_the_text": "It should be carefully noted that helicity percentage is also concentration-dependent. NMR-resolved structures are usually determined at a concentration of several mM, while CD spectra measure at a few tens of μM. It has been reported by several studies that the same helical peptide resolved by NMR (at high concentration) has a higher helicity percentage than that of the same measured by CD (at a lower concentration). For instance, an intragenic AMP (PDB ID: 6VLA) has a helicity percentage of 94% according to its NMR-resolved structure but 59% by CD[48]. Similarly, an AMP from Whiteleg shrimp ..."}},
  "note": "Where no end group is shown, it is not given here.",
  "data": [
    {"substance": "KKWLKWLKWLKKK [W3_p2]", "values": [
      {"measurement": "MIC90 vs. C. albicans", "setting": "[1]", "value": 7.5, "unit": "µg/mL"},
      {"measurement": "MIC90 vs. E. coli", "setting": "[2]", "value": 15, "unit": "µg/mL"},
      {"measurement": "MHC5", "setting": "[3]", "value": 90, "unit": "µg/mL"}
    ]},
    {"substance": "FKRIVQRIKDFLR-NH2 (C-terminus assumed) [FK13]", "values": [
      {"measurement": "MIC90 vs. E. coli", "setting": "[2]", "value": 25, "unit": "µg/mL"},
      {"measurement": "reported MIC", "setting": "[4]", "value": 27.5, "unit": "µg/mL"}
    ]},
    {"substance": "KKWKCWARWRLKK [W3_db5]", "values": [
      {"measurement": "MIC90 vs. C. albicans", "setting": "[1]", "value": 3.75, "unit": "µg/mL"},
      {"measurement": "MIC90 vs. E. coli", "setting": "[2]", "value": 30, "unit": "µg/mL"},
      {"measurement": "hemolysis reduction of human RBCs as compared to templates W3-p1 and W3-p2", "setting": "[3]", "value": "20–40 folds"}
    ]},
    {"substance": "KKWKDWESWRLKK [W3_n2]", "values": [
      {"measurement": "MIC90 vs. E. coli", "setting": "[2]", "value": ">>120 μg/ml"},
      {"measurement": "E. coli ATCC 25922 killed in the MIC90 experiments", "setting": "[2]", "value": 9.5, "unit": "%"}
    ]},
    {"substance": "KKWGNWGGWRLKK [W3_n1]", "values": [
      {"measurement": "MIC90 vs. E. coli", "setting": "[2]", "value": ">>120 μg/ml"},
      {"measurement": "E. coli ATCC 25922 killed in the MIC90 experiments", "setting": "[2]", "value": 2.5, "unit": "%"}
    ]},
    {"substance": "GLLKKIKWLL-NH2 (C-terminus assumed) [Anoplin-R5KT8W]", "values": [
      {"measurement": "reported MIC", "setting": "[4]", "value": 15.1, "unit": "µg/mL"}
    ]},
    {"substance": "KKWRKWLKWLAKK [W3_p1]", "values": [
      {"measurement": "MIC90 vs. C. albicans", "setting": "[1]", "value": 7.5, "unit": "µg/mL"},
      {"measurement": "MIC90 vs. E. coli", "setting": "[2]", "value": 15, "unit": "µg/mL"},
      {"measurement": "MHC5", "setting": "[3]", "value": 120, "unit": "µg/mL"}
    ]},
    {"substance": "KWKLFKKIGAVLKVL-NH2 (C-terminus assumed) [CM15]", "values": [
      {"measurement": "helicity percentage (DichroWeb, from CD spectra)", "setting": "[5]", "value": 54, "unit": "%"},
      {"measurement": "reported MIC", "setting": "[4]", "value": 4.0, "unit": "µg/mL"},
      {"measurement": "helicity by NMR", "setting": "[6]", "value": 80, "unit": "%"},
      {"measurement": "helicity percentage by CD", "setting": "[6]", "value": 65, "unit": "%"}
    ]}
  ]
}
